# In US12510533B2, “Methods for treating multiple myeloma and the use of companion biomarkers for 4-(4-(4-(((2-(2,6-dioxopiperidin-3-yl)-1-oxoisoindolin-4-yl)oxy)methyl)benzyl)piperazin-1-yl)-3-fluorobenzonitrile” (Celgene Corporation, priority 2018, dated 2025):
# What was measured:
# K562 cells = assay: Killing of untreated K562 cells by IL-2-activated PBMCs treated with compound (co-culture, Annexin V/PI); assay type: cell-based; settings: Homo sapiens, IL-2-activated PBMCs treated 72 hours, read-out: IC50, direct K562 cell killing by treated PBMCs
# Protocol: Freshly isolated human PBMCs were cultured with recombinant IL-2 at concentration of 20 units/mL for 72 hours. Peripheral blood mononuclear cells were then spun down and re-suspended in fresh RPMI complete medium to 2×10^6 cells/mL. Cells were then treated with DMSO or Compound 2 at the indicated concentrations and incubated for an additional 72 hours. The PBMCs were then washed twice in fresh RPMI complete medium prior to coculture. K562 cells were re-suspended to a cell density of 1×10^6 cells/mL and stained with 1 μM CellTrace CFSE according to manufacturer's instructions. The labeled K562 cells were then seeded into a 96-well round bottom plate at 1×10^5 cells/well. […] Specific target cell lysis by PBMC mediated apoptosis was measured using Annexin V-fluorescein isothiocyanate (FITC) and propidium iodide (PI) according to manufacturer's instructions and samples were run on the FACS Array scan. […] All myeloma cell lines were kept in log phase, and cell density and viability were monitored by trypan blue exclusion using the Vi-CELL XR cell viability analyzer. […] Frozen PBMC donors, were thawed at 37° C. for 2 minutes in RPMI medium with 10% FBS and cell counts and viability were measured on the Vi-CELL® (Beckman Coulter). […] Peripheral blood mononuclear cells were counted and added to the MM cells at a target:effector (T:E) ratio of 1:5. […]
# Ikaros = Ikaros (Homo sapiens, UniProt Q13422+Q96SW2); assay: Ikaros degradation in CD4+ T cells; assay type: cell-based; set-up: The effects of Compound 2 on the degradation of Ikaros in CD4+ and CD8+ T cells; endogenous in cells; host or cells: CD4+ and CD8+ T cells of healthy donors; CD34+ bone marrow cells of healthy donors; CD3+ T cells of multiple myeloma patients; settings: 24 hours, read-out: Ikaros degradation IC50
# Chain of Ikaros (Q13422 whole entry): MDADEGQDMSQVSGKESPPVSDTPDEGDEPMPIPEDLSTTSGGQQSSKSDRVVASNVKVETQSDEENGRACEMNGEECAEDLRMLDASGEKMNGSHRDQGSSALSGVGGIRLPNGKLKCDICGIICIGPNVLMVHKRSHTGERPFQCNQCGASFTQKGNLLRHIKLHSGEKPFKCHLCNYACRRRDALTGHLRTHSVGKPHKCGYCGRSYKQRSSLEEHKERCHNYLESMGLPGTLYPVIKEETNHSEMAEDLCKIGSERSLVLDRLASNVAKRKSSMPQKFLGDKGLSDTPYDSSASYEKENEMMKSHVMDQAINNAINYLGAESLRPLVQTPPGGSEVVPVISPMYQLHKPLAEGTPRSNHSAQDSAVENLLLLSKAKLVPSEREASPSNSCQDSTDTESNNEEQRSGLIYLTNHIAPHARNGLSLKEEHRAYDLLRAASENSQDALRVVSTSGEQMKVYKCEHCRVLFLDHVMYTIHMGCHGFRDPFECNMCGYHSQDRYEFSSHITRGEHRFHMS
# Chain of Ikaros (Q16531 2-1140, further chain): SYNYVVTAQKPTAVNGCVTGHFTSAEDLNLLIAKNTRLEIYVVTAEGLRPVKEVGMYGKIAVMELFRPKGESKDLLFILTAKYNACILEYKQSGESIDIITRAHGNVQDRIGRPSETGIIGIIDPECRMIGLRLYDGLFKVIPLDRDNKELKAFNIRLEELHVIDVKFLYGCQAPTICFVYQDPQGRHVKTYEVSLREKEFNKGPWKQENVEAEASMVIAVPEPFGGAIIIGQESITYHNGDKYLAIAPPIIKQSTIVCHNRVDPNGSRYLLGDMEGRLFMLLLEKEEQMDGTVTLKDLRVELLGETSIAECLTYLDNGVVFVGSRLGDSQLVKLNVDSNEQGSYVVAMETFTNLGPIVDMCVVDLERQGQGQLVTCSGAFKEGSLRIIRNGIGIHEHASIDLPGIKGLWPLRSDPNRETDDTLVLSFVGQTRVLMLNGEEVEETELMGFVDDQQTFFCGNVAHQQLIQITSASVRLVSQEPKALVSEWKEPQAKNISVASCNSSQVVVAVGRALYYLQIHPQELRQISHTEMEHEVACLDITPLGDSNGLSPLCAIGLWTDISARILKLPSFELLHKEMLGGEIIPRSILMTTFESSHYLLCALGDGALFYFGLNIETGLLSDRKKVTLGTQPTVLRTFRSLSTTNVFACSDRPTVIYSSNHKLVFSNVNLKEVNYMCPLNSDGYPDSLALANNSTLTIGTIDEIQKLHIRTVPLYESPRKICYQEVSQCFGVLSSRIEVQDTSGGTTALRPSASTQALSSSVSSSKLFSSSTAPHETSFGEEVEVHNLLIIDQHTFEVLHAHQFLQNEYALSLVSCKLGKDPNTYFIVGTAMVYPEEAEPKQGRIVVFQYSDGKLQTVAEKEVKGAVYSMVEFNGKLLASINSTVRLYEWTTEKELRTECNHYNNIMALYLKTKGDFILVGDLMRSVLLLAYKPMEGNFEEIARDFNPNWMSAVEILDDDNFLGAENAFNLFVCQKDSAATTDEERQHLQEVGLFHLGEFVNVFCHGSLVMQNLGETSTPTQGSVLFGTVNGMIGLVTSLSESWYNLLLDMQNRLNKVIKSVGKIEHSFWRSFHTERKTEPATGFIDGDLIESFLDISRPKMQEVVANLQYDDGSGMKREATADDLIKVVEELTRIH
# Chain of Ikaros (Q96SW2 whole entry): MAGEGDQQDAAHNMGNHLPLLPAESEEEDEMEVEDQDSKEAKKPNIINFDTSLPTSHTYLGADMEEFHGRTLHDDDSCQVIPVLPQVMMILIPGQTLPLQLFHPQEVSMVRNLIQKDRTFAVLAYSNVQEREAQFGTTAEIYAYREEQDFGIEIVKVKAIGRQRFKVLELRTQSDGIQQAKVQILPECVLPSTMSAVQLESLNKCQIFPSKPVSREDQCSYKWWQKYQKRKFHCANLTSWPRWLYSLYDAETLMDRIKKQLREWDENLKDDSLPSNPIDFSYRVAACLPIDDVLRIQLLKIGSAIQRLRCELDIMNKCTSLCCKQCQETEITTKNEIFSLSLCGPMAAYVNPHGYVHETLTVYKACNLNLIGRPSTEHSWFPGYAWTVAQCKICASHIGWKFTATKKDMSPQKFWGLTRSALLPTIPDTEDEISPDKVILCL
# Protocol: FIG. 22A-FIG. 22C illustrate that Compound 2 induces degradation of Ikaros in CD4+ T cells. […] Data shown are an average from two donors and are represented as MFI normalized to DMSO control.
# The effects of Compound 2 on the degradation of Ikaros in CD4+ and CD8+ T cells over a 72 hour time course were investigated. The ability of Compound 2 to induce effector cytokine release correlated with degradation of Ikaros in CD4+ T cells, a known transcriptional repressor of IL-2 (FIG. 22A-FIG. 22C). […] The ability of Compound 2 to degrade Ikaros was also observed at the 48 and 72 hour time point in both CD4+(FIG. 22B and FIG. 22C) and CD8+ (data not shown) T cell populations. […] Thus, Ikaros and Aiolos can serve as biomarkers of T-cell activation.
# H929-1051 cells = assay: PBMC-induced MM cell lysis, PBMCs and MM cells both pretreated, versus single MM culture (H929-1051); assay type: cell-based, human; settings: PBMCs and MM cells both preincubated 72 hours
# Protocol: Ninety-six-well dishes were pre-coated with anti-CD3 antibody (OKT3, 3 μg/mL) and incubated at 4° C. overnight before the start of the experiment. Frozen PBMC donor cells were thawed at 37° C. for 2 minutes in RPMI medium with 10% FBS and cell counts and viability were measured on the Vi-CELL analyzer. Peripheral blood mononuclear cells were washed and diluted to 1×10^6 cells/mL and dispensed into the compound-treated plates in a total volume of 200 μL. Cells were incubated with Compound 2 for 2 hours before being transferred onto anti-CD3-coated plates and incubated for an additional 72 hours. At the same time, MM cell lines (NCI-H929, H929-1051, OPM2, OPM2-P10) were diluted to a final concentration of 0.1×10^6 cells/mL and labeled with CellTrace CFSE according to manufacturer's instructions. Multiple myeloma cell lines were then dispensed into compound-treated plates at a total volume of 200 μL and incubated for 72 hours. After 72 hours, the PBMCs and MM cells were counted and transferred into a U-bottom 96-well plate at a final T:E ratio of 1:5. After 24 hours coculture, specific target cell lysis by PBMC mediated apoptosis was measured using Annexin V-AF647 and 7-AAD according to manufacturer's instructions and samples were run on the Attune NxT Cytometer. […]
structure (smiles),measurement,setting,value
"N#Cc1ccc(N2CCN(Cc3ccc(COc4cccc5c4CN([C@H]4CCC(=O)NC4=O)C5=O)cc3)CC2)c(F)c1 [Compound 2, (S)-4-(4-(4-(((2-(2,6-dioxopiperidin-3-yl)-1-oxoisoindolin-4-yl)oxy)methyl)benzyl)piperazin-1-yl)-3-fluorobenzonitrile]",IC50,K562 cells,0.0059 nM
same,DC50,Ikaros,0.3 nM
same,"enhancement of killing, IC50 of single MM culture versus immune and tumor cell co-culture",H929-1051 cells,~6000 fold
